How the values were obtained:
[1] = molecular target: T1, PPARγ (Homo sapiens, UniProt P37231); test: aP2 Assay for PPAR Gamma Agonists (bDNA aP2 mRNA, preadipocytes); assay type: cell-based; settings: fold induction, unbracketed values; PPARγ standard FI = 70.3
T1 construct: Following the challenge of the preadipocytes, cells may be lysed with lysis buffer; endogenous in cells; host or cells: preadipocytes
T1 sequence (P37231 1-505): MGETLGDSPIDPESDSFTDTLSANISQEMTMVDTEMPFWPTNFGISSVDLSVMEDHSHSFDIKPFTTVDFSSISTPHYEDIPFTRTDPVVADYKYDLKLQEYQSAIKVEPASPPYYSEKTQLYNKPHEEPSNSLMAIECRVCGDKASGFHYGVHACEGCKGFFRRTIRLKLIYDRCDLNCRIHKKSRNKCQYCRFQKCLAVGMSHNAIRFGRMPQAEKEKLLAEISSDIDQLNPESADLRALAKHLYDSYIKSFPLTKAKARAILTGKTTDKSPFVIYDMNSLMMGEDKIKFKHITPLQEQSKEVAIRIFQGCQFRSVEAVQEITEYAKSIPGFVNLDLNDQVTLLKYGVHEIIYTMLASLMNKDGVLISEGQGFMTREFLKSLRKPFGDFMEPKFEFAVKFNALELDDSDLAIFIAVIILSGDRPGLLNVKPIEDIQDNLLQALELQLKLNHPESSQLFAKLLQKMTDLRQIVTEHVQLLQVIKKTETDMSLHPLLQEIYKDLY
Source text: aP2 Assay for PPAR Gamma Agonists
The procedure is described in detail in Burris et al., Molecular Endocrinology 1999, 13:410, which is hereby incorporated by reference in its entirety, and aP2 assay results of agonist intrinsic activity may be presented as fold increase over vehicle in induction of aP2 mRNA production.
Twenty-four hours after the initial seeding of the 96-well plates by hand (around 20,000/well), the differentiation assay may be initiated. Medium may be removed and replaced with 150 μl of differentiation medium containing vehicle (DMSO) or test compounds. Cells may be returned to incubator for 24 hours culture. At the termination of the challenge, medium may be removed and 100 ul of lysis buffer may be added to initiate the bDNA aP2 mRNA assay. The branched DNA assay may be performed according to the manufacturer's protocol (Bayer Diagnostics; Emeryville, Calif.). Result may be expressed as the fold increase of aP2 mRNA production activated over vehicle controls. EC50's and Emax may be determined by non-linear regression with a sigmoidal fit curve.
Following the challenge of the preadipocytes, cells may be lysed with lysis buffer (Bayer Diagnostics) containing the aP2 oligonucleotides. After a 15 minute incubation at 53° C. or 30 minutes at 37° C. incubator, 70 ul of the lysis buffer from each well may be added to a corresponding capture well (preincubated with 70 ul of blocking buffer (Bayer Diagnostics)). The capture plate may be incubated overnight at 53° C. in a plate incubator (Bayer Diagnostics). After this incubation, the bDNA and labeled probes may be annealed as directed by the manufacturer. Following a 30-minute incubation with the luminescent alkaline phosphatase substrate, dioxitane, the luminescence may be quantitated in a Dynex MLX microtiter plate luminometer. Oligonucleotide probes designed to anneal to the aP2 mRNA and function in the bDNA mRNA detection system are designed with ProbeDesigner software (Bayer Diagnostics). This software package analyzes a target sequence of interest with a series of algorithms in order to determine which regions of the sequence can perform as locations for capture, label, or spacer probe annealing. The sequences of the oligonucleotides are as follows: […]

[2] = molecular target: T2, PPARδ (Homo sapiens, UniProt Q03181); test: Transfection Assay for PPARδ Receptors (PPAR-Gal4 receptor / Gal4-Luciferase Reporter, HEK293 cells); assay type: cell-based; settings: for PPARδ FI: fold induction, unbracketed values, PPARδ standard FI = 36.1
T2 sequence (Q03181 171-441 limits assumed): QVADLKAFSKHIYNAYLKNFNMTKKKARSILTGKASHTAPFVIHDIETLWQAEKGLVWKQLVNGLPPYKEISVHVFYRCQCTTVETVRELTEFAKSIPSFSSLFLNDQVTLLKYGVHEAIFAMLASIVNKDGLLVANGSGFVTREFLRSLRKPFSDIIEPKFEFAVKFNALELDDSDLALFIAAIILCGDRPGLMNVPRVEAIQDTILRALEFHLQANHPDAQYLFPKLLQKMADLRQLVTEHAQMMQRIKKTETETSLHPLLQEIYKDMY
Method: Transfection Assay for PPARδ Receptors
HEK293 cells were grown in DMEM/F-12 Media supplemented with 10% FBS and glutamine (GIBCOBRL). The cells were co-transfected with DNA for PPAR-Gal4 receptor and Gal4-Luciferase Reporter using the DMRIE-C Reagent. On the following day, the DNA-containing medium were replaced with 5% Charcoal treated FBS growth medium. After six hours, cells were seeded in 96 well plate and incubated at 37° C. in CO2 incubator overnight. Cells were challenged by test compounds and incubated for 24 hours at 37° C. in 5% CO2 incubator. Luciferase activity was assayed using the Steady-Glo Luciferase Assay Kit from Promega. DMRIE-C Reagent was purchased from GIBCO Cat. No. 10459-014. OPTI-MEM I Reduced Serum Medium was purchased from GIBCO Cat. No. 31985. Steady-Glo Luciferase Assay Kit was obtained from Promega Part# E254B.

PPARγ FI [1] | PPARδ FI [2] | EC50 ([2]; bracketed values) | SMILES
0.24 | 4.2 | – | CCN(C(=O)Nc1ccc(OC(F)(F)F)cc1)C1Cc2ccc(SC(C)(C)C(=O)O)cc2C1 (centres unmarked) [Example 2, 2-{2-[1-Ethyl-3-(4-trifluoromethoxyphenyl)ureido]indan-5-ylsulfanyl}-2-methylpropionic acid]
3.7 | – | – | CCN(C(=O)Nc1ccc(SC(F)(F)F)cc1)C1Cc2ccc(SC(C)(C)C(=O)O)cc2C1 (centres unmarked) [Example 4, 2-{2-[1-Ethyl-3-(4-trifluoromethylsulfanylphenyl)ureido]indan-5-ylsulfanyl}-2-methylpropionic acid]
4.0 | 2.5 | – | CCCCCN(C(=O)Nc1ccc(SC(F)(F)F)cc1)C1Cc2ccc(SC(C)(C)C(=O)O)cc2C1 (centres unmarked) [Example 5, 2-Methyl-2-{2-[1-pentyl-3-(4-trifluoromethylsulfanylphenyl)ureido]indan-5-ylsulfanyl}propionic acid]
1.9 | 3.6 | – | CCN(C(=O)Nc1ccc(C(C)C)cc1)C1Cc2ccc(SC(C)(C)C(=O)O)cc2C1 (centres unmarked) [Example 6, 2-{2-[1-Ethyl-3-(4-isopropylphenyl)ureido]indan-5-ylsulfanyl}-2-methylpropionic acid]
11 | – | – | CCCCCN(C(=O)Nc1ccc(-c2ccccc2)cc1)C1Cc2ccc(SC(C)(C)C(=O)O)cc2C1 (centres unmarked) [Example 12, 2-[2-(3-Biphenyl-4-yl-1-pentylureido)indan-5-ylsulfanyl]-2-methylpropionic acid]
1.2 | – | – | CCCCCCN(C(=O)Nc1ccc(C(C)C)cc1)C1Cc2ccc(SC(C)(C)C(=O)O)cc2C1 (centres unmarked) [Example 13, 2-{2-[3-(4-Isopropylphenyl)-1-hexylureido]indan-5-ylsulfanyl}-2-methylpropionic acid]
– | 1.2 | – | CCCCCCN(C(=O)Nc1ccc(SC(F)(F)F)cc1)C1Cc2ccc(SC(C)(C)C(=O)O)cc2C1 (centres unmarked) [Example 15, 2-Methyl-2-{2-[1-hexyl-3-(4-trifluoromethylsulfanylphenyl)ureido]indan-5-ylsulfanyl}propionic acid]
0.37 | – | – | CCCN(C(=O)Nc1ccc(OC(F)(F)F)cc1)C1Cc2ccc(SC(C)(C)C(=O)O)cc2C1 (centres unmarked) [Example 16, 2-Methyl-2-{2-[1-propyl-3-(4-trifluoromethoxyphenyl)ureido]indan-5-ylsulfanyl}propionic acid]
0.43 | – | – | CCCCN(C(=O)Nc1ccc(SC(F)(F)F)cc1)C1Cc2ccc(SC(C)(C)C(=O)O)cc2C1 (centres unmarked) [Example 17, 2-Methyl-2-{2-[1-butyl-3-(4-trifluoromethylsulfanylphenyl)ureido]indan-5-ylsulfanyl}propionic acid]
0.31 | – | – | CC(C)(Sc1ccc2c(c1)CC(NC(=O)Nc1ccc(OC(F)(F)F)cc1)C2)C(=O)O (centres unmarked) [Example 18, 2-Methyl-2-{2-[3-(4-trifluoromethoxyphenyl)ureido]indan-5-ylsulfanyl}propionic acid]
– | 1.4 | – | C=CCCCN(C(=O)Nc1ccc(OC(F)(F)F)cc1)C1Cc2ccc(SC(C)(C)C(=O)O)cc2C1 (centres unmarked) [Example 19, 2-Methy-2-{2-[1-pent-4-enyl-3-(4-trifluoromethoxyphenyl)ureido]indan-5-ylsulfanyl}propionic acid]
0.44 | – | – | CC(C)CCN(C(=O)Nc1ccc(OC(F)(F)F)cc1)C1Cc2ccc(SC(C)(C)C(=O)O)cc2C1 (centres unmarked) [Example 20, 2-Methyl-2-{2-[1-(3-methylbutyl)-3-(4-trifluoromethoxyphenyl)ureido]indan-5-ylsulfanyl}-2-methylpropionic acid]
0.05 | – | – | CC(C)CCN(C(=O)Nc1ccc(C(C)C)cc1)C1Cc2ccc(SC(C)(C)C(=O)O)cc2C1 (centres unmarked) [Example 21, 2-{2-[3-(4-Isopropylphenyl)-1-(3-methylbutyl)ureido]indan-5-ylsulfanyl}-2-methylpropionic acid]
– | 4.5 | – | CCN(C(=O)Nc1ccc(OC(F)(F)F)c(Br)c1)C1Cc2ccc(SC(C)(C)C(=O)O)cc2C1 (centres unmarked) [Example 25, 2-{2-[3-(3-Bromo-4-trifluoromethoxyphenyl)-1-ethylureido]indan-5-ylsulfanyl}-2-methylpropionic acid]
– | 2.1 | – | CCN(C(=O)Nc1cccc(OC(F)(F)F)c1)C1Cc2ccc(SC(C)(C)C(=O)O)cc2C1 (centres unmarked) [Example 26, 2-{2-[1-Ethyl-3-(3-trifluoromethoxyphenyl)ureido]indan-5-ylsulfanyl}-2-methylpropionic acid]
– | 8.2 | – | CC(C)(Sc1ccc2c(c1)CC(N(CCCC1CCCC1)C(=O)Nc1ccc(OC(F)(F)F)cc1)C2)C(=O)O (centres unmarked) [Example 28, 2-{2-[1-(3-Cyclopentylpropyl)-3-(4-trifluoromethoxyphenyl)ureido]indan-5-ylsulfanyl}-2-methylpropionic acid]
– | 1.5 | – | CCCN(C(=O)Nc1ccc(OC)cc1)C1Cc2ccc(SC(C)(C)C(=O)O)cc2C1 (centres unmarked) [Example 32, 2-{2-[3-(4-Methoxyphenyl)-1-propylureido]indan-5-ylsulfanyl}-2-methylpropionic acid]
– | 0.8 | – | CCCN(C(=O)Nc1cc(C)cc(C)c1)C1Cc2ccc(SC(C)(C)C(=O)O)cc2C1 (centres unmarked) [Example 33, 2-{2-[3-(3,5-Dimethylphenyl)-1-propylureido]indan-5-ylsulfanyl}-2-methylpropionic acid]
– | 5.6 | – | CCCN(C(=O)Nc1ccc(C(F)(F)F)cc1)C1Cc2ccc(SC(C)(C)C(=O)O)cc2C1 (centres unmarked) [Example 35, 2-Methyl-2-{2-[1-propyl-3-(4-trifluoromethylphenyl)ureido]indan-5-ylsulfanyl}-propionic acid]
– | 1.9 | – | CC(C)(Sc1ccc2c(c1)CC(N(CCCC1CCCC1)C(=O)Nc1ccccc1)C2)C(=O)O (centres unmarked) [Example 37, 2-{2-[1-(3-Cyclopentylpropyl)-3-phenylureido]indan-5-ylsulfanyl}-2-methylpropionic acid]
– | 9.3 | – | CCCCCN(C(=O)Nc1ccc2ccccc2c1)C1Cc2ccc(SC(C)(C)C(=O)O)cc2C1 (centres unmarked) [Example 39, 2-Methyl-2-[2-(3-naphthalen-2-yl-1-pentylureido)indan-5-ylsulfanyl]propionic acid]
– | 6.0 | – | CCCN(C(=O)Nc1ccc(OC(F)(F)F)cc1)C1CCc2ccc(SC(C)(C)C(=O)O)cc2C1 (centres unmarked) [Example 46, 2-Methyl-2-{7-[1-propyl-3-(4-trifluoromethoxyphenyl)ureido}-5,6,7,8-tetrahydronaphthalen-2-ylsulfanyl}propionic acid]
– | – | > 3 µM | CCN(C(=O)Nc1ccc(C(C)(C)C)cc1)C1CCc2cc(SC(C)(C)C(=O)O)c(OC)cc2C1 (centres unmarked) [Example 49, 2-{6-[3-(4-tert-Butylphenyl)1-ethylureido]-3-methoxy-5,6,7,8-tetrahydronaphthalen-2-ylsulfanyl}-2-methylpropionic acid]

— US20060094786A1, “Treating syndrome X with substituted tetralins and indanes” (priority 2002, published 2006)
